One data set has as its target T1, Human sEH (Homo sapiens, UniProt P34913).
T1 sequence (P34913 1-555): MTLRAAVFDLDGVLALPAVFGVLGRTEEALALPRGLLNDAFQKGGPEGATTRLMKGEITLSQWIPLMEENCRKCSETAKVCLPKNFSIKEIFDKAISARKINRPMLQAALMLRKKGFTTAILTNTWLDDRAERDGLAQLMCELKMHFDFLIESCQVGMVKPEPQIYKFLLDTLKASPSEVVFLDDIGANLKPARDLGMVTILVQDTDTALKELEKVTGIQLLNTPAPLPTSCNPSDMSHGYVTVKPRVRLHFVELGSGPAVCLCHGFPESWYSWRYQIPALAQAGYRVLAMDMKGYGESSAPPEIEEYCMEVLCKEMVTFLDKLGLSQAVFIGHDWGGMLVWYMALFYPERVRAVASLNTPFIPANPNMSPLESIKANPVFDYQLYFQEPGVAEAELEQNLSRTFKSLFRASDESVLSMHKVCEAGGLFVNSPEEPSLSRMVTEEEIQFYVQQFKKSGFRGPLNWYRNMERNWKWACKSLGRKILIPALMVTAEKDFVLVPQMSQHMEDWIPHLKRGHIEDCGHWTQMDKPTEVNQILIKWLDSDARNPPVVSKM
Nature of the data set: sEH fluorescent-based inhibition assay. The format is biochemical.

For the next data set, the target named is T2, Mouse sEH (Mus musculus, UniProt P34914).
T2 sequence (P34914 1-554): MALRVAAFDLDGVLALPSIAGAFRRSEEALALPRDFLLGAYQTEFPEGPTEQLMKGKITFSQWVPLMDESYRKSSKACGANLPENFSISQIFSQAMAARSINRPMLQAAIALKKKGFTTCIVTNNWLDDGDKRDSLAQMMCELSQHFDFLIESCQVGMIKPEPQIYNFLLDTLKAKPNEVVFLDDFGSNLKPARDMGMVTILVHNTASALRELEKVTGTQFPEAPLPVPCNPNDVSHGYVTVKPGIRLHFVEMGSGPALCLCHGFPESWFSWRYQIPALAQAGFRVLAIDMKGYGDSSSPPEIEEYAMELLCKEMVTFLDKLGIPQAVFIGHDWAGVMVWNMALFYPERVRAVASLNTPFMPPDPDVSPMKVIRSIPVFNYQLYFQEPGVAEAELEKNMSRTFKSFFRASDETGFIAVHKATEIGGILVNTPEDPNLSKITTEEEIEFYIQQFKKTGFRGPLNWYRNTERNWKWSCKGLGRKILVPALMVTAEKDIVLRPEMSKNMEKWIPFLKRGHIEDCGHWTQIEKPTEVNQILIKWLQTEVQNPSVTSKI
Put plainly: sEH fluorescent-based inhibition assay. The format is biochemical.

The target of another data set is T3, Rat sEH (Rattus norvegicus, UniProt P80299).
T3 sequence (P80299 1-554): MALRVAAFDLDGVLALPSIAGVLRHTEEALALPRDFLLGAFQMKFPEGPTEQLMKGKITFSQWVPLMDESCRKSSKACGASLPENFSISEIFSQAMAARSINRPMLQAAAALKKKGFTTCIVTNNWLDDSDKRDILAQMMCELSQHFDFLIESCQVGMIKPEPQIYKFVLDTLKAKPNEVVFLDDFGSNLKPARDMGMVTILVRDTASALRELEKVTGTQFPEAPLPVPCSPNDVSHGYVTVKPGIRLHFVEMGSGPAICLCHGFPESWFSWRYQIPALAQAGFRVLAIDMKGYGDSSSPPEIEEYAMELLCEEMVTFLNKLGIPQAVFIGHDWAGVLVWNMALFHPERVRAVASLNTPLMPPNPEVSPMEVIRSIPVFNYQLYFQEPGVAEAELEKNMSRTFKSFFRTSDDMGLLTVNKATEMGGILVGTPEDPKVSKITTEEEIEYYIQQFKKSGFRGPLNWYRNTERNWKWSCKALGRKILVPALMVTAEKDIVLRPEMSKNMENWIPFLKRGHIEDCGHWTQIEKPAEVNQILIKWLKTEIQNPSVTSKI
Nature of the data set: sEH fluorescent-based inhibition assay. The data set is classed as biochemical.

A further data set in a line: physchem. Conditions: sodium phosphate buffer, 24 °C, pH 7.4, aqueous buffer, kinetic from dmso stock.
In another data set the test system is rats. The note with it: 1 mg/kg; cited from earlier work.
For data set [1], the system named is temporomandibular joint (TMJ). Conditions: local administration; cited from earlier work.

SMILES strings stand for the structures. In brackets after ≈: the same amount, converted by molar mass.

The values below come from article PMC12018053 (Biochemistry and Biophysics Reports, 2025).

As a reminder, the IC50 is the concentration at which inhibition is half-maximal. The term solubility denotes how much of the substance goes into solution per volume. Low readings indicate little dissolved substance, high ones much dissolved substance.

As for `O=C(Nc1ccc(-c2cccc3ccncc23)cc1)C1CCN(S(=O)(=O)c2ccccc2Cl)CC1` [Compound 4g, 1-((2-chlorophenyl)sulfonyl)-N-(4-(isoquinolin-8-yl)phenyl)piperidine-4-carboxamide], the half-maximal inhibitory concentration (IC50) came out at 1.4 nM on Human sEH, 69 nM against Mouse sEH and 4.7 nM at Rat sEH. For the same molecule, in the data set “physchem”, the solubility worked out at 65.6 µM (≈ 33.2 µg/mL).

In the case of `O=C(Nc1ccc(-c2ccncc2)cc1)C1CCN(S(=O)(=O)c2ccccc2Cl)CC1` [Compound 4j, 1-((2-chlorophenyl)sulfonyl)-N-(4-(pyridin-4-yl)phenyl)piperidine-4-carboxamide], the IC50 against Human sEH turned out to be 1.8 nM; against Mouse sEH it was 133 nM; against Rat sEH, 3.1 nM. The molecule further registered a solubility in “physchem” of 50.9 µM (≈ 23.2 µg/mL).

With `O=C(Nc1ccc(-c2cc3ccccc3cn2)cc1)C1CCN(S(=O)(=O)c2ccccc2Cl)CC1` [Compound 4b, 1-((2-chlorophenyl)sulfonyl)-N-(4-(isoquinolin-3-yl)phenyl)piperidine-4-carboxamide], the half-maximal inhibitory concentration (IC50) on Human sEH is 18.7 nM; at Mouse sEH, 236 nM; against Rat sEH, 11.5 nM. The molecule further returned a solubility in “physchem” of 51.6 µM (≈ 26.1 µg/mL).

As for `O=C(Nc1ccc(-c2ccc3cnccc3c2)cc1)C1CCN(S(=O)(=O)c2ccccc2Cl)CC1` [Compound 4e, 1-((2-chlorophenyl)sulfonyl)-N-(4-(isoquinolin-6-yl)phenyl)piperidine-4-carboxamide], the half-maximal inhibitory concentration (IC50) against Human sEH was determined as 1.8 nM; against Mouse sEH it was 51.3 nM; against Rat sEH it was 0.5 nM. In addition, the solubility in “physchem” came to 55.8 µM (≈ 28.2 µg/mL).

Regarding `O=C(Nc1ccc(-c2nccc3ccccc23)cc1)C1CCN(S(=O)(=O)c2ccccc2Cl)CC1` [Compound 4a, 1-((2-chlorophenyl)sulfonyl)-N-(4-(isoquinolin-1-yl)phenyl)piperidine-4-carboxamide], the values for the IC50 against Human sEH, against Mouse sEH and on Rat sEH were 3.7 nM, 283 nM and 3.7 nM, respectively. Moreover, the solubility in the data set “physchem” was determined as 56 µM (≈ 28.3 µg/mL).

Take `NC(=O)c1cccc(-c2cc(OC(=O)NC3CCCCC3)ccc2O)c1` [URB937]: the “Effect on NTG-induced trigeminal hyperalgesia” value with rats was “reversed NTG-induced trigeminal hyperalgesia”.

Take `O=C(Nc1ccc(-c2cccc3cnccc23)cc1)C1CCN(S(=O)(=O)c2ccccc2Cl)CC1` [Compound 4d, 1-((2-chlorophenyl)sulfonyl)-N-(4-(isoquinolin-5-yl)phenyl)piperidine-4-carboxamide]: the IC50 at Human sEH is 0.4 nM; on Mouse sEH, 30.6 nM; on Rat sEH, 2.2 nM. The solubility in the data set “physchem” amounted to 40 µM (≈ 20.3 µg/mL).

Take `O=C(Nc1ccc(-c2cccnc2)cc1)C1CCN(S(=O)(=O)c2ccccc2Cl)CC1` [Compound 4i, 1-((2-chlorophenyl)sulfonyl)-N-(4-(pyridin-3-yl)phenyl)piperidine-4-carboxamide]: the IC50 against Human sEH worked out at 1.3 nM; against Mouse sEH it was 127 nM; at Rat sEH, 2.8 nM. In addition, the solubility in the data set “physchem” stood at 51.1 µM (≈ 23.3 µg/mL).

Consider `CCC(=O)N1CCC(NC(=O)Nc2ccc(OC(F)(F)F)cc2)CC1` [TPPU], for which the “Effect on formalin-induced hyperalgesia within the temporomandibular joint” value in data set [1] was “prevented formalin-induced hyperalgesia”.

Take `Cc1cc(-c2ccc(NC(=O)C3CCN(S(=O)(=O)c4ccccc4Cl)CC3)cc2)ccn1` [Compound 4n, 1-((2-chlorophenyl)sulfonyl)-N-(4-(2-methylpyridin-4-yl)phenyl)piperidine-4-carboxamide]: the 50% inhibitory concentration (IC50) against Human sEH was 5.8 nM; on Mouse sEH, 259 nM; on Rat sEH it was 3.6 nM. Moreover, the solubility in “physchem” was found to be 53 µM (≈ 24.9 µg/mL).

As to `O=C(Nc1ccc(-c2cncc3ccccc23)cc1)C1CCN(S(=O)(=O)c2ccccc2Cl)CC1` [Compound 4c, 1-((2-chlorophenyl)sulfonyl)-N-(4-(isoquinolin-4-yl)phenyl)piperidine-4-carboxamide], the 50% inhibitory concentration (IC50) worked out at 0.4 nM against Human sEH, 22.3 nM at Mouse sEH and 0.8 nM against Rat sEH. The molecule further gave a solubility in the data set “physchem” of 49.2 µM (≈ 24.9 µg/mL).

As to `Cc1cncc(-c2ccc(NC(=O)C3CCN(S(=O)(=O)c4ccccc4Cl)CC3)cc2)c1` [Compound 4m, 1-((2-chlorophenyl)sulfonyl)-N-(4-(5-methylpyridin-3-yl)phenyl)piperidine-4-carboxamide], the IC50 at Human sEH was 2.6 nM; at Mouse sEH it was 175 nM; on Rat sEH, 1.1 nM. This molecule also came in with a solubility in the data set “physchem” of 49.4 µM (≈ 23.2 µg/mL).

Regarding `Cc1cccc(-c2ccc(NC(=O)C3CCN(S(=O)(=O)c4ccccc4Cl)CC3)cc2)n1` [Compound 4k, 1-((2-chlorophenyl)sulfonyl)-N-(4-(6-methylpyridin-2-yl)phenyl)piperidine-4-carboxamide], the results for the IC50 against Human sEH, against Mouse sEH and against Rat sEH were 4.7 nM, 226 nM and 1.6 nM, respectively. Also, the solubility in “physchem” worked out at 43.4 µM (≈ 20.4 µg/mL).

In the case of `O=C(Nc1ccc(-c2ccccn2)cc1)C1CCN(S(=O)(=O)c2ccccc2Cl)CC1` [Compound 4h, 1-((2-chlorophenyl)sulfonyl)-N-(4-(pyridin-2-yl)phenyl)piperidine-4-carboxamide], the IC50 at Mouse sEH amounted to 188 nM; against Rat sEH it was 1.9 nM. In “physchem”, this molecule had a solubility of 66.7 µM (≈ 30.4 µg/mL).

Turning to `Cc1ccnc(-c2ccc(NC(=O)C3CCN(S(=O)(=O)c4ccccc4Cl)CC3)cc2)c1` [Compound 4l, 1-((2-chlorophenyl)sulfonyl)-N-(4-(4-methylpyridin-2-yl)phenyl)piperidine-4-carboxamide], the results for the IC50 on Human sEH, on Mouse sEH and against Rat sEH were 5.1 nM, 499 nM and 10.3 nM, respectively. For the same molecule, in the data set “physchem”, the solubility amounted to 36.4 µM (≈ 17.1 µg/mL).
